Values of other authors in patent US20030212138A1, “Combinations of peroxisome proliferator-activated receptor-alpha agonists and cyclooxygenase-2 selective inhibitors and therapeutic uses therefor” (Pharmacia Corporation, priority 2002, published 2003).

Tested on: fibroblast growth factor-induced corneal angiogenesis
Details: rats; Masferrer et al. 1999

Cc1ccc(-c2cc(C(F)(F)F)nn2-c2ccc(S(N)(=O)=O)cc2)cc1 [Celecoxib®, 4-[5-(4-methylphenyl)-3-(trifluoromethyl)-1H-pyrazol-1-yl]benzenesulfonamide]
inhibition of fibroblast growth factor-induced corneal angiogenesis: potent inhibition
